In the experiment the test system is L1210 leukemia ip in BDF1 mice, survival T/C. Put plainly: NCI In Vivo Anticancer Drug Screen. Data for tumor model L1210 Leukemia (intraperitoneal) in B6D2F1 (BDF1) mice. The settings on record: endpoint: mean survival time, higher = longer survival. The gist of the method: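 Each compound was tested against a transplantable tumor grown in mice. The endpoint was survival, with treated animals benchmarked against vehicle controls as a simple ratio.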

[1] abbreviates: dose: 100.0 mg/kg/injection, schedule: Q01DX001 (ip), vehicle: saline.
Where [2] appears, read: dose: 200.0 mg/kg/injection, schedule: Q01DX001 (ip), vehicle: saline.
[3] abbreviates: dose: 400.0 mg/kg/injection, schedule: Q01DX001 (ip), vehicle: saline.
Setting [4] is: dose: 100.0 mg/kg/injection, schedule: Q01DX009 (ip), vehicle: Klucel (hydroxypropylcellulose) (HPC).
The mark [5] stands for this setting: dose: 100.0 mg/kg/injection, schedule: Q04DX003 (ip), vehicle: Klucel (hydroxypropylcellulose) (HPC).
[6] abbreviates: dose: 200.0 mg/kg/injection, schedule: Q01DX009 (ip), vehicle: Klucel (hydroxypropylcellulose) (HPC).
Setting [7] is: dose: 200.0 mg/kg/injection, schedule: Q04DX003 (ip), vehicle: Klucel (hydroxypropylcellulose) (HPC).
[8] abbreviates: dose: 400.0 mg/kg/injection, schedule: Q01DX009 (ip), vehicle: Klucel (hydroxypropylcellulose) (HPC).
The mark [9] stands for this setting: dose: 400.0 mg/kg/injection, schedule: Q04DX003 (ip), vehicle: Klucel (hydroxypropylcellulose) (HPC).
[10] abbreviates: dose: 100.0 mg/kg/injection, schedule: Q04DX003 (ip), vehicle: saline.
Where [11] appears, read: dose: 200.0 mg/kg/injection, schedule: Q04DX003 (ip), vehicle: saline.
The mark [12] stands for this setting: dose: 25.0 mg/kg/injection, schedule: Q01DX009 (ip), vehicle: saline with Tween-80.

Values joined by “and” are separate entries in the source; they are usually repeats but may differ in a detail not shown here. Equal entries are not always repeated. Inconclusive results and toxic doses are left out.

Drawing on PubChem BioAssay AID248 (DTP/NCI, 2004), this text covers T/C for 14 molecules.

For `O=C(O)/C=C(\CC(=O)O)C(=O)O`, the T/C runs as follows: (dose: 100.0 mg/kg/injection, schedule: Q01DX001 (ip), vehicle: Klucel (hydroxypropylcellulose) (HPC)) 95 % of control; under setting [1], 92 % of control; under setting [2], 90 % of control; (dose: 400.0 mg/kg/injection, schedule: Q01DX001 (ip), vehicle: Klucel (hydroxypropylcellulose) (HPC)) 95 % of control; under setting [3], 98 % of control.
`CC1CCC(NC(=O)N(CCF)N=O)CC1` (centres undefined): the T/C by setting is: (dose: 8.0 mg/kg/injection, schedule: Q01DX001 (ip), vehicle: other) 115 % of control; (dose: 26.0 mg/kg/injection, schedule: Q01DX001 (ip), vehicle: other) 433 % of control; (dose: 40.0 mg/kg/injection, schedule: Q01DX001 (ip), vehicle: other) 500 % of control; (dose: 60.0 mg/kg/injection, schedule: Q01DX001 (ip), vehicle: other) 437 % of control.
For `CCOc1ccccc1NC(=O)Nc1ccc(Cl)cc1`, the T/C is 97 % of control under setting [4]; 100 % of control under setting [5]; 103 % of control under setting [6]; 96 % of control under setting [7]; 101 % of control under setting [8]; 100 % of control under setting [9].
Regarding `CCC(C(=O)OC)C1CCN(C)C(=O)C12CO2` (centres undefined), the T/C runs as follows: (dose: 25.0 mg/kg/injection, schedule: Q01DX001 (ip), vehicle: saline) 93 % of control; (dose: 25.0 mg/kg/injection, schedule: Q04DX003 (ip), vehicle: saline) 95 % of control; (dose: 25.0 mg/kg/injection, schedule: Q04DX003 (oral), vehicle: saline) 100 % of control; (dose: 50.0 mg/kg/injection, schedule: Q01DX001 (ip), vehicle: saline) 104 % of control; (dose: 50.0 mg/kg/injection, schedule: Q04DX003 (ip), vehicle: saline) 95 % of control; (dose: 50.0 mg/kg/injection, schedule: Q04DX003 (oral), vehicle: saline) 98 % of control. Moreover, the T/C is, setting by setting: under setting [1], 97 % of control; under setting [10], 97 % of control; (dose: 100.0 mg/kg/injection, schedule: Q04DX003 (oral), vehicle: saline) 96 % of control; under setting [2], 103 % of control; under setting [11], 97 % of control; (dose: 200.0 mg/kg/injection, schedule: Q04DX003 (oral), vehicle: saline) 107 % of control.
In the case of `O=C(NCCBr)Nc1cccc2c1Cc1ccccc1-2`, the T/C was 105 % of control under setting [4]; 95 % of control under setting [5]; 96 % of control under setting [6]; 95 % of control under setting [7]; 94 % of control under setting [8]; 97 % of control under setting [9].
In the case of `OCC(O)C(O)C(O)C(O)C(O)CO` (centres undefined), the T/C under setting [1] was 98 % of control; the T/C (dose: 100.0 mg/kg/injection, schedule: Q01DX009 (ip), vehicle: saline with Tween-80) is 96 % of control; the T/C under setting [10] is 94 % of control; the T/C under setting [2] is 106 % of control; the T/C (dose: 200.0 mg/kg/injection, schedule: Q01DX009 (ip), vehicle: saline with Tween-80) is 110 % of control; the T/C under setting [11] was 97 % of control. The T/C under setting [3] was 95 % of control; the T/C (dose: 400.0 mg/kg/injection, schedule: Q01DX009 (ip), vehicle: saline with Tween-80) is 90 % of control; the T/C (dose: 400.0 mg/kg/injection, schedule: Q04DX003 (ip), vehicle: saline) was 106 % of control.
`CSc1ccc(NC(=O)Nc2ccc(C(=O)NCC(=O)O)cc2)cc1`: the T/C under setting [12] is 102 % of control and 92 % of control; the T/C (dose: 25.0 mg/kg/injection, schedule: Q04DX003 (ip), vehicle: saline with Tween-80) is 96 % of control; the T/C (dose: 50.0 mg/kg/injection, schedule: Q04DX003 (ip), vehicle: saline with Tween-80) is 105 % of control; the T/C (dose: 100.0 mg/kg/injection, schedule: Q01DX001 (ip), vehicle: saline with Tween-80) is 97 % of control; the T/C (dose: 100.0 mg/kg/injection, schedule: Q04DX002 (ip), vehicle: saline with Tween-80) was 96 % of control and 91 % of control; the T/C (dose: 100.0 mg/kg/injection, schedule: Q04DX003 (ip), vehicle: saline with Tween-80) was 110 % of control. For the same molecule, the T/C (dose: 200.0 mg/kg/injection, schedule: Q04DX002 (ip), vehicle: saline with Tween-80) is 94 % of control and 99 % of control.
Take `CSc1ccc(OC(=O)Nc2cc(C)ccc2C)cc1`: the T/C is 97 % of control under setting [4]; 109 % of control under setting [5]; 107 % of control under setting [6]; 107 % of control under setting [7]; 107 % of control under setting [9].
Consider `O=NN(CCCl)C(=O)N[C@@H]1CCCC[C@H]1O`, for which the T/C (dose: 1.6 mg/kg/injection, schedule: Q01DX001 (ip), vehicle: saline with Tween-80) is 106 % of control; the T/C (dose: 2.4 mg/kg/injection, schedule: Q01DX001 (ip), vehicle: saline with Tween-80) was 116 % of control; the T/C (dose: 5.4 mg/kg/injection, schedule: Q01DX001 (ip), vehicle: saline with Tween-80) was 183 % of control; the T/C (dose: 6.0 mg/kg/injection, schedule: Q01DX001 (ip), vehicle: saline with Tween-80) was 302 % of control; the T/C (dose: 8.0 mg/kg/injection, schedule: Q01DX001 (ip), vehicle: saline with Tween-80) is 441 % of control; the T/C (dose: 9.0 mg/kg/injection, schedule: Q01DX001 (ip), vehicle: saline with Tween-80) was 492 % of control. The T/C was 441 % of control and 468 % of control (dose: 12.0 mg/kg/injection, schedule: Q01DX001 (ip), vehicle: saline with Tween-80); 505 % of control (dose: 13.0 mg/kg/injection, schedule: Q01DX001 (ip), vehicle: saline with Tween-80); 441 % of control (dose: 18.0 mg/kg/injection, schedule: Q01DX001 (ip), vehicle: saline with Tween-80); 505 % of control (dose: 20.0 mg/kg/injection, schedule: Q01DX001 (ip), vehicle: saline with Tween-80); 166 % of control (dose: 26.0 mg/kg/injection, schedule: Q01DX001 (ip), vehicle: saline with Tween-80); 195 % of control (dose: 30.0 mg/kg/injection, schedule: Q01DX001 (ip), vehicle: saline with Tween-80).
Take `CCCCCC(=O)NNC(=O)CCCCC`: the T/C (dose: 75.0 mg/kg/injection, schedule: Q01DX001 (ip), vehicle: saline) was 91 % of control; the T/C (dose: 150.0 mg/kg/injection, schedule: Q01DX001 (ip), vehicle: saline) was 91 % of control; the T/C (dose: 300.0 mg/kg/injection, schedule: Q01DX001 (ip), vehicle: saline) was 94 % of control.
Consider `NC(=S)N/N=C/c1ccncc1`, for which the T/C runs as follows: (dose: 50.0 mg/kg/injection, schedule: Q01DX009 (ip), vehicle: saline) 96 % of control; (dose: 100.0 mg/kg/injection, schedule: Q01DX009 (ip), vehicle: saline) 98 % of control; under setting [10], 96 % of control; (dose: 200.0 mg/kg/injection, schedule: Q01DX009 (ip), vehicle: saline) 93 % of control; under setting [11], 91 % of control.
Regarding `COC1=C(NC(C)c2ccccc2)C(=O)C(OC)=C(NC(C)c2ccccc2)C1=O` (centres undefined), the T/C is 96 % of control (dose: 50.0 mg/kg/injection, schedule: Q01DX001 (ip), vehicle: carboxymethylcellulose (CMC)) and 89 % of control (dose: 200.0 mg/kg/injection, schedule: Q01DX001 (ip), vehicle: carboxymethylcellulose (CMC)).
For `COc1ccc(/C=C/c2ccc3ccccc3[n+]2C)cc1`, the T/C (dose: 12.5 mg/kg/injection, schedule: Q01DX009 (ip), vehicle: saline with Tween-80) is 94 % of control; the T/C under setting [12] is 115 % of control; the T/C (dose: 25.0 mg/kg/injection, schedule: Q04DX003 (ip), vehicle: Klucel (hydroxypropylcellulose) (HPC)) was 101 % of control; the T/C (dose: 50.0 mg/kg/injection, schedule: Q01DX009 (ip), vehicle: saline with Tween-80) is 115 % of control; the T/C (dose: 50.0 mg/kg/injection, schedule: Q04DX003 (ip), vehicle: Klucel (hydroxypropylcellulose) (HPC)) was 106 % of control.
Turning to `Cc1ccc(C)c(NC(=O)NC(C)(C)C)c1`, the T/C runs as follows: (dose: 100.0 mg/kg/injection, schedule: Q04DX002 (ip), vehicle: Klucel (hydroxypropylcellulose) (HPC)) 105 % of control; (dose: 200.0 mg/kg/injection, schedule: Q04DX002 (ip), vehicle: Klucel (hydroxypropylcellulose) (HPC)) 102 % of control; (dose: 400.0 mg/kg/injection, schedule: Q04DX002 (ip), vehicle: Klucel (hydroxypropylcellulose) (HPC)) 117 % of control.
